Earlier results as cited in patent publication US20060009360A1, “New adjuvant composition” (priority 2004, published 2006).

Details: glyphosate in acid form

## O=C(O)CNCP(=O)(O)O [glyphosate, N-(phosphonomethyl)glycine]
  water solubility: about 1.2%
